Results reported in ChEMBL document CHEMBL3392990, “Multifunctional coumarin derivatives: monoamine oxidase B (MAO-B) inhibition, anti-β-amyloid (Aβ) aggregation and metal chelation properties against Alzheimer's disease” (Bioorg Med Chem Lett, 2015).

Assays:
[1] = biological target: Amyloid-beta precursor protein (Homo sapiens) (UniProt P05067); assay: Inhibition of amyloid beta (1 to 42) (unknown origin) self-induced aggregation at 20 uM after 46 to 48 hrs by thioflavin-T fluorescence method
[2] = biological target: T1, Amine oxidase [flavin-containing] A (Homo sapiens, UniProt P21397); assay: Inhibition of human recombinant MAO-A using p-tyramine as substrate assessed as H2O2 production at 100 uM after 15 mins by fluorescence assay; conditions: 0.25 h
T1 sequence (P21397 whole entry): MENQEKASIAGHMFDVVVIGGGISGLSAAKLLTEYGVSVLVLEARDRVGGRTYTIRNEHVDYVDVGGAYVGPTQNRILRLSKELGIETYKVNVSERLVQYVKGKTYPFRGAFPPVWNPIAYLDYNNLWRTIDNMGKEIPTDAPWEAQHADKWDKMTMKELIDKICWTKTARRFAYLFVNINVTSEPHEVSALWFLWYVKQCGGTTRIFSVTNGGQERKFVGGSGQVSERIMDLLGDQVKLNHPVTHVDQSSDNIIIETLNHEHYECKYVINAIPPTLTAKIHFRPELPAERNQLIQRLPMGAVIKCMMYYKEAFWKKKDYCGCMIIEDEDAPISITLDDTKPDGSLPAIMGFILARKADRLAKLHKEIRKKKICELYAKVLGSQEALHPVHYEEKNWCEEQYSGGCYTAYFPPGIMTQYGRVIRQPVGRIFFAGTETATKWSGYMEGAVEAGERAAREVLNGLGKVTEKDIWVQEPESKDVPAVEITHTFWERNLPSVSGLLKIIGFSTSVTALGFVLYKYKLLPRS

[3] = biological target: T2, Amine oxidase [flavin-containing] B (Homo sapiens, UniProt P27338); assay: Inhibition of human recombinant MAO-B using p-tyramine as substrate assessed as H2O2 production after 15 mins by fluorescence assay
T2 sequence (P27338 whole entry): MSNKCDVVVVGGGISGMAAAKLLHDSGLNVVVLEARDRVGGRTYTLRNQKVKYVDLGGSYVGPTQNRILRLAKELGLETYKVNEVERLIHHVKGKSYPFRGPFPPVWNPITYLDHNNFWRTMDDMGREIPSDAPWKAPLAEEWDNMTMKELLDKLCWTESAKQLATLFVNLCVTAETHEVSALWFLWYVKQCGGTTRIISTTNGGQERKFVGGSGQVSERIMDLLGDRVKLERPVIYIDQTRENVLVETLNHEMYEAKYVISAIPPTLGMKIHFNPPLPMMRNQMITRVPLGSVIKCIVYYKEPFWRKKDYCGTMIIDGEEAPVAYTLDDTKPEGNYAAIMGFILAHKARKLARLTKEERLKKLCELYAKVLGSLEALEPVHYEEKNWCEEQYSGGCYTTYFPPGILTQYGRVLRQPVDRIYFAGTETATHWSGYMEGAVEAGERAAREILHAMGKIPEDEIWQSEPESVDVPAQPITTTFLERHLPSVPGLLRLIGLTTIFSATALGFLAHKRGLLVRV

[4] = Permeability of the compound after 16 hrs by PAMPA; assay type: ADME; conditions: read-out: Peff
[5] = biological target: T2, Amine oxidase [flavin-containing] B; assay: Ratio of pargyline IC50 to compound IC50 for human recombinant MAO-B
[6] = Cytotoxicity against human SH-SY5Y cells assessed as cell viability at 1 to 100 uM after 24 hrs by MTT assay; assay type: cell-based
[7] = biological target: T2, Amine oxidase [flavin-containing] B; assay: Irreversible inhibition of human MAO-B at 2 times IC50 using p-tyramine as substrate assessed as H2O2 production after 0 to 60 mins
[8] = Metal chelating activity of the compound assessed as formation of copper complex at 35 uM by UV-Vis spectrophotometry; assay type: physicochemical
[9] = Cytotoxicity against rat PC12 cells assessed as cell viability at 1 to 100 uM after 24 hrs by MTT assay; assay type: cell-based; conditions: pc-12, 24 h

Sequence of Amyloid-beta precursor protein (Homo sapiens) (P05067 whole entry): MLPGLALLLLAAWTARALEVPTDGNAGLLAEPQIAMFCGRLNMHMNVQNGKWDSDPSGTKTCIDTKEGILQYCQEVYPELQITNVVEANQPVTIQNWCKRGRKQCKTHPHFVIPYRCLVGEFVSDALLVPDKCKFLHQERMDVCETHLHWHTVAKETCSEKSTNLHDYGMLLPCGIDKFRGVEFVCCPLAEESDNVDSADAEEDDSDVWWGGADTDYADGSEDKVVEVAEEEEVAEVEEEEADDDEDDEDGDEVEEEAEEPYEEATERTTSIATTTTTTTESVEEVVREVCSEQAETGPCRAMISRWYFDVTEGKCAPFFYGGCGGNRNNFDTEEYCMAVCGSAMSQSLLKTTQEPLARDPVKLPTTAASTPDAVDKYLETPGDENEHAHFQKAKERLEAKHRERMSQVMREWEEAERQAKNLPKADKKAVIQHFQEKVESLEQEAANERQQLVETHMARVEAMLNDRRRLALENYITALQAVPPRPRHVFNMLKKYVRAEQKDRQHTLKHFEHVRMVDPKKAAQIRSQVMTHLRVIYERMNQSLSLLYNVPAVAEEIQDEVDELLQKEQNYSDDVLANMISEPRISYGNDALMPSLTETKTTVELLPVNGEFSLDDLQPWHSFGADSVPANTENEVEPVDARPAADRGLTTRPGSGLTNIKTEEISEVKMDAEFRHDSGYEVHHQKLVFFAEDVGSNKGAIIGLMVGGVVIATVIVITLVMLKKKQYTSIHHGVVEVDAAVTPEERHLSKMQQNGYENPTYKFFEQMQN

Compound	inhibition [1] [%]	inhibition at 100 µM [2] [%]	IC50 [3] [nM]	Papp at 16 h [4] [×10⁻⁶ cm/s]	further results
Cc1c(C)c2ccc(/N=C/c3ccccc3O)cc2[nH]c1=O	49.1	17.7	1680	–	–
CN1C(C(=O)Nc2ccccn2)=C(O)c2ccccc2S1(=O)=O [PIROXICAM]	–	–	–	1.72	–
Cc1cc(=O)[nH]c2cc(/N=C/c3ccccc3O)ccc12	35.6	54.2	12300	–	–
NCCc1ccc(O)c(O)c1 [DOPAMINE]	–	–	–	0.83	–
Cc1c(C)c2ccc(NCc3ccccc3O)cc2oc1=O	47.7	–	–	12.3	–
Cc1cc(=O)oc2cc(NCc3ccccc3O)ccc12	36.1	39.4	20100	–	–
COc1ccc(/C=N/c2ccc3c(C)cc(=O)oc3c2)c(O)c1	50.2	–	–	–	–
O=c1oc2cc(NCc3ccccc3O)ccc2c2c1CCC2	41.6	23.6	9330	–	–
Cc1cc(=O)oc2cc(/N=C/c3ccccc3O)ccc12	44.8	47.2	723	–	–
O=c1oc2cc(/N=C/c3ccccc3O)ccc2c2c1CCC2	52.9	3.5	81	8.9	Ratio IC50 [5]: 2; Activity [6]: Non-toxic; inhibition (INH) [7]: Active; Activity [8]: Active; Activity [9]: Non-toxic
O=c1oc2cc(NCc3ccccc3O)ccc2c2c1CCCC2	43.7	53.6	1240	–	–
Cc1cc(=O)oc2cc(/N=C/c3ccc(Br)cc3O)ccc12	51.5	–	–	–	–
Cc1cc(=O)[nH]c2cc(NCc3ccccc3O)ccc12	32.6	–	–	–	–
Cc1c(Cl)c(=O)oc2cc(NCc3ccccc3O)ccc12	47.6	–	–	–	–
Cc1c(C)c2ccc(/N=C/c3ccccc3O)cc2oc1=O	53.9	–	–	10.6	–
Cc1c(Cl)c(=O)oc2cc(/N=C/c3ccc(O)cc3O)ccc12	60.2	–	–	–	–
O=c1oc2cc(/N=C/c3ccc(O)cc3O)ccc2c2c1CCC2	56.4	67.6	217	4.7	–
Cc1ccc(/C=N/c2ccc3c(C)cc(=O)oc3c2)c(O)c1	49.4	–	–	–	–
C[C@]12C[C@H](O)[C@H]3[C@@H](CCC4=CC(=O)CC[C@@]43C)[C@@H]1CC[C@@H]2C(=O)CO [CORTICOSTERONE]	–	–	–	1.09	–
O=c1oc2cc(/N=C/c3ccc(O)cc3O)ccc2c2c1CCCC2	58.5	22.6	3420	–	–
Cc1cc(=O)oc2cc(/N=C/c3ccc(O)cc3O)ccc12	50.3	–	–	–	–
O=c1oc2cc(/N=C/c3ccccc3O)ccc2c2c1CCCC2	53.7	17.2	841	–	–
Cc1c(Cl)c(=O)oc2cc(/N=C/c3ccccc3O)ccc12	49.3	–	–	–	–
Cc1c(C)c2ccc(/N=C/c3ccc(O)cc3O)cc2oc1=O	57.6	–	–	6.7	–
C[C@]12CC[C@@H]3c4ccc(O)cc4CC[C@H]3[C@@H]1CC[C@@H]2O [ESTRADIOL]	–	–	–	8.33	–
